Laboratory results from ChEMBL document CHEMBL5360625, “Design, Synthesis, and Antitumor Activity Evaluation of 2-Arylmethoxy-4-(2,2'-dihalogen-substituted biphenyl-3-ylmethoxy) Benzylamine Derivatives as Potent PD-1/PD-L1 Inhibitors” (J Med Chem, 2023).
Values belong to the compound of their own block, whether it stands above or below them.

Columns and labels:
[1] = biological target: Programmed cell death protein 1/Programmed cell death 1 ligand 1 (Homo sapiens, UniProt Q9NZQ7); assay: Inhibition of PD-1/PD-L1 interaction (unknown origin) incubated for 1 hr by HTRF assay; assay type: protein-complex assay
PBMC = assay: Cytotoxicity against human PBMC cells assessed as reduction in cell viability at 1 to 4 uM measured after 48 hrs by CCK-8 assay; assay type: toxicity, cell-based; details: dose 1-4 µM
[2] = AUC (0 to t) in Sprague-Dawley rat at 8 mg/kg, iv measured upto 48 hrs by LC-MS/MS analysis; assay type: ADME, organism-based; parameters: dose 8 mg/kg, time < 48 hrs, route iv; details: in vivo
[3] = Apparent volume of distribution in Sprague-Dawley rat at 10 mg/kg, ip measured upto 48 hrs by LC-MS/MS analysis; assay type: ADME, organism-based; details: in vivo
[4] = Cmax in Sprague-Dawley rat at 40 mg/kg, IG measured upto 48 hrs by LC-MS/MS analysis; assay type: ADME, organism-based; parameters: dose 40 mg/kg, time < 48 hrs, route ig; details: in vivo, po
[5] = AUC (0 to t) in Sprague-Dawley rat at 10 mg/kg, ip measured upto 48 hrs by LC-MS/MS analysis; assay type: ADME, organism-based; parameters: time < 48 hrs, dose 10 mg/kg, route ip; details: in vivo
[6] = Half life in Sprague-Dawley rat at 40 mg/kg, IG measured upto 48 hrs by LC-MS/MS analysis; assay type: ADME, organism-based; details: in vivo, po, 40 mg/kg, 48 h
[7] = AUC (0 to infinity) in Sprague-Dawley rat at 8 mg/kg, iv measured upto 48 hrs by LC-MS/MS analysis; assay type: ADME, organism-based; parameters: time < 48 hrs, dose 8 mg/kg, route iv; details: in vivo
[8] = Tmax in Sprague-Dawley rat at 10 mg/kg, ip measured upto 48 hrs by LC-MS/MS analysis; assay type: ADME, organism-based; details: in vivo
[9] = Clearance in Sprague-Dawley rat at 40 mg/kg, IG measured upto 48 hrs by LC-MS/MS analysis; assay type: ADME, organism-based; details: in vivo, po, 40 mg/kg, 48 h
[10] = Apparent volume of distribution in Sprague-Dawley rat at 40 mg/kg, IG measured upto 48 hrs by LC-MS/MS analysis; assay type: ADME, organism-based; details: in vivo, po
[11] = AUC (0 to infinity) in Sprague-Dawley rat at 40 mg/kg, IG measured upto 48 hrs by LC-MS/MS analysis; assay type: ADME, organism-based; parameters: time < 48 hrs, dose 40 mg/kg, route ig; details: in vivo, po, 48 h
[12] = Clearance in Sprague-Dawley rat at 8 mg/kg, iv measured upto 48 hrs by LC-MS/MS analysis; assay type: ADME, organism-based; details: in vivo, iv, 8 mg/kg, 48 h
MC-38 = assay: Antitumor activity against mouse MC38 cells expressing human PD-L1 protein assessed as reduction in cell viability measured after 48 hrs by CCK-8 assay; assay type: functional, cell-based; details: MC-38, 48 h
[13] = AUC (0 to t) in Sprague-Dawley rat at 40 mg/kg, IG measured upto 48 hrs by LC-MS/MS analysis; assay type: ADME, organism-based; parameters: dose 40 mg/kg, time < 48 hrs, route ig; details: in vivo, po
[14] = Half life in Sprague-Dawley rat at 10 mg/kg, ip measured upto 48 hrs by LC-MS/MS analysis; assay type: ADME, organism-based; details: in vivo
[15] = Half life in Sprague-Dawley rat at 8 mg/kg, iv measured upto 48 hrs by LC-MS/MS analysis; assay type: ADME, organism-based; details: in vivo, iv, 8 mg/kg, 48 h
[16] = Bioavailability in Sprague-Dawley rat at 40 mg/kg, IG measured upto 48 hrs by LC-MS/MS analysis; assay type: ADME, organism-based; details: in vivo, po
[17] = Cmax in Sprague-Dawley rat at 10 mg/kg, ip measured upto 48 hrs by LC-MS/MS analysis; assay type: ADME, organism-based; parameters: time < 48 hrs, dose 10 mg/kg, route ip; details: in vivo
[18] = Cmax in Sprague-Dawley rat at 8 mg/kg, iv measured upto 48 hrs by LC-MS/MS analysis; assay type: ADME, organism-based; parameters: time < 48 hrs, dose 8 mg/kg, route iv; details: in vivo
[19] = AUC (0 to infinity) in Sprague-Dawley rat at 10 mg/kg, ip measured upto 48 hrs by LC-MS/MS analysis; assay type: ADME, organism-based; parameters: time < 48 hrs, dose 10 mg/kg, route ip; details: in vivo
[20] = Apparent volume of distribution in Sprague-Dawley rat at 8 mg/kg, iv measured upto 48 hrs by LC-MS/MS analysis; assay type: ADME, organism-based; details: in vivo, iv, 8 mg/kg, 48 h
[21] = Clearance in Sprague-Dawley rat at 10 mg/kg, ip measured upto 48 hrs by LC-MS/MS analysis; assay type: ADME, organism-based; details: in vivo
[22] = Tmax in Sprague-Dawley rat at 8 mg/kg, iv measured upto 48 hrs by LC-MS/MS analysis; assay type: ADME, organism-based; details: in vivo

Programmed cell death protein 1/Programmed cell death 1 ligand 1, sequence (Q15116 whole entry): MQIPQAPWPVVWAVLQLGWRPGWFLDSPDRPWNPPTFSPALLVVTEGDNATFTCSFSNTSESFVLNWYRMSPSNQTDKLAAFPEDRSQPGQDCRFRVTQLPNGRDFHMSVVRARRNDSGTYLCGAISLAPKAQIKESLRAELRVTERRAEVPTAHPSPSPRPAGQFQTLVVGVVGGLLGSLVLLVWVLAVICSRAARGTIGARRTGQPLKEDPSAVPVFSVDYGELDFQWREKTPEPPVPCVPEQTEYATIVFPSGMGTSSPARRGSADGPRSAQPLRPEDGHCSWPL
Programmed cell death protein 1/Programmed cell death 1 ligand 1, sequence (Q9NZQ7 whole entry): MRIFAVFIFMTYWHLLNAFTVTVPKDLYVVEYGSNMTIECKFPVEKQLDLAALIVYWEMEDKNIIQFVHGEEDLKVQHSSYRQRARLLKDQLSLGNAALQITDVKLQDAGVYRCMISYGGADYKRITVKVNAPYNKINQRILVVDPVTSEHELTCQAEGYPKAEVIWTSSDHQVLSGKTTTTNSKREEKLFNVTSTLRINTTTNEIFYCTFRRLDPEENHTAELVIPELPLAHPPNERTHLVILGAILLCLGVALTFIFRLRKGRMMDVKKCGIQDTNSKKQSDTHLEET

Structure (SMILES): COc1c(NCc2ccc(OCc3ccc(F)cc3)c(CNCCO)c2)cccc1-c1ccc2ccccc2c1
IC50 [1]: > 32 µM

Structure (SMILES): N#Cc1cccc(COc2cc(OCc3cccc(-c4ccccc4F)c3Cl)ccc2CN2CCC(O)C2)c1 (stereo not given)
IC50 [1]: 19.2 µM | Activity (PBMC): Non-Toxic

Structure (SMILES): COc1c(NCc2ccc(OCc3ccc(F)cc3)c(CNCCNC(C)=O)c2)cccc1-c1ccc2cc[nH]c2c1
IC50 [1]: > 32 µM

Structure (SMILES): COc1c(COc2ccc(CNCCNC(C)=O)c(OCc3cccc(C#N)c3)c2)cccc1-c1ccccc1Cl
IC50 [1]: 3.6 µM

Structure (SMILES): COc1c(COc2cc(OCc3cncc(C#N)c3)c(CNCCNC(C)=O)cc2Cl)cccc1-c1ccccc1F
IC50 [1]: 468 µM

Structure (SMILES): COc1c(COc2ccc(CNCCNC(C)=O)c(OCc3cccc(C)c3)c2)cccc1-c1ccccc1
IC50 [1]: 18.3 µM

Structure (SMILES): COc1c(COc2ccc(CN3CCC[C@H]3C(=O)O)c(OCc3cccc(C#N)c3)c2)cccc1-c1ccccc1
IC50 [1]: 18.9 µM

Structure (SMILES): COc1c(COc2ccc(CN[C@H](C(=O)O)C(C)O)c(OCc3cccc(C#N)c3)c2)cccc1-c1ccccc1 (single isomer, unassigned)
IC50 [1]: 17.3 µM

Structure (SMILES): COc1c(NCc2ccc(OCc3cccc(C#N)c3)c(CNCCNC(C)=O)c2)cccc1-c1ccc2ccccc2c1
IC50 [1]: > 32 µM

AUC(0-t) at 48 h [2]: 1370 ng·h/mL | Vz [3]: 8.28 L/kg | Cmax [4]: 1290 ng/mL | AUC(0-t) at 48 h [5]: 1970 ng·h/mL | t1/2 [6]: 188 min | AUC(0-inf) [7]: 1840 ng·h/mL | Tmax [8]: 49.8 min | CL [9]: 572.5 mL/min/kg | Vz [10]: 65.83 L/kg | AUC [11]: 2869.12 ng·h/mL | CL [12]: 75.3 mL/min/kg | AUC(0-t) at 48 h [13]: 2660 ng·h/mL | half-life [14]: 97.8 min | t1/2 [15]: 6.6 min | bioavailability [16]: 42% | Cmax [17]: 786 ng/mL | Cmax [18]: 2530 ng/mL | AUC(0-inf) [19]: 2160 ng·h/mL | Vz [20]: 2.04 L/kg | CL/F [21]: 78 mL/min/kg | Tmax [22]: 4.8 min
Structure (SMILES): N#Cc1cccc(COc2cc(OCc3cccc(-c4ccccc4F)c3Cl)ccc2CNCC(=O)O)c1
IC50 [1]: 6 µM | IC50 (MC-38): > 8 µM | Activity (PBMC): Non-Toxic

Structure (SMILES): COc1c(COc2ccc(CNCCNC(C)=O)c(OCc3cccc(C#N)c3)c2)cccc1-c1ccccc1F
IC50 [1]: 2.4 µM

Structure (SMILES): COc1c(COc2ccc(CN3CC(C(=O)O)C3)c(OCc3cncc(C#N)c3)c2)cccc1-c1ccccc1
IC50 [1]: 4.7 µM

Structure (SMILES): COc1c(COc2ccc(CNCCNC(C)=O)c(OCc3cccnc3F)c2)cccc1-c1ccccc1
IC50 [1]: 12.9 µM

Structure (SMILES): COc1c(COc2ccc(CN3CCC(O)C3)c(OCc3cncc(C#N)c3)c2)cccc1-c1ccccc1 (stereo not given)
IC50 [1]: 6.2 µM

Structure (SMILES): COc1c(COc2cc(OCc3cncc(C#N)c3)c(CNCCO)cc2Cl)cccc1-c1ccccc1F
IC50 [1]: 348 µM

Structure (SMILES): COc1c(NCc2ccc(OCc3ccc(C(=O)O)cc3)c(CNCCO)c2)cccc1-c1ccccc1
IC50 [1]: > 32 µM

Structure (SMILES): COc1c(COc2ccc(CNCCNC(C)=O)c(OCc3cccc(C#N)c3)c2)cccc1-c1ccc2c(c1)OCCO2
IC50 [1]: 2.9 µM

Structure (SMILES): COc1c(COc2ccc(CN[C@@H](CO)C(=O)O)c(OCc3cncc(C#N)c3)c2)cccc1-c1ccccc1F
IC50 [1]: 616 µM

Structure (SMILES): COc1c(NCc2ccc(OCc3cccc(C#N)c3)c(CNCCO)c2)cccc1-c1ccc2cc[nH]c2c1
IC50 [1]: > 32 µM

Structure (SMILES): N#Cc1cccc(COc2cc(OCc3cccc(-c4ccccc4F)c3F)ccc2CNCCO)c1
IC50 [1]: 130 µM

Structure (SMILES): N#Cc1cccc(COc2cc(OCc3cccc(-c4ccccc4F)c3Cl)ccc2CN2CC(C(=O)O)C2)c1
IC50 [1]: 33.6 µM

Structure (SMILES): N#Cc1cccc(COc2cc(OCc3cccc(-c4ccccc4F)c3Cl)ccc2CNCCO)c1
IC50 [1]: 12.7 µM | Activity (PBMC): Non-Toxic

Structure (SMILES): COc1c(COc2ccc(CNCCNC(C)=O)c(OCc3cccc(C#N)c3)c2)cccc1-c1ccc2ccccc2c1
IC50 [1]: 16 µM

Structure (SMILES): COc1c(NCc2ccc(OCc3cccc(C#N)c3)c(CNCCO)c2)cccc1-c1ccccc1
IC50 [1]: 32 µM

Structure (SMILES): COc1c(NCc2ccc(OCc3cccc(C#N)c3)c(CNCCNC(C)=O)c2)cccc1-c1ccccc1
IC50 [1]: > 32 µM

Structure (SMILES): COc1c(COc2ccc(CNCCNC(C)=O)c(OCc3cncc(C#N)c3)c2)cccc1-c1ccccc1
IC50 [1]: 1.6 µM

Structure (SMILES): COC(=O)c1ccc(COc2ccc(CNc3cccc(-c4ccccc4)c3OC)cc2CNCCO)cc1
IC50 [1]: > 32 µM

Structure (SMILES): COc1c(COc2ccc(CNCCO)c(OCc3ccc(F)cc3)c2)cccc1-c1ccccc1
IC50 [1]: 8.6 µM

Structure (SMILES): COc1cc(COc2cc(OCc3cccc(-c4ccccc4)c3OC)ccc2CNCCNC(C)=O)ccn1
IC50 [1]: 13.7 µM

Structure (SMILES): COc1c(COc2ccc(CN[C@@H](CO)C(=O)O)c(OCc3cccc(C#N)c3)c2)cccc1-c1ccccc1F
IC50 [1]: 2130 µM
